The target in the assay is T1, Pol-β (Homo sapiens, UniProt P06746).
T1 construct: gene POLB; purified protein
Nature of the assay: strand-displacement synthesis on […]-labelled 63-mer F-DNA, denaturing gel. As to conditions: pH 7.5, 30 mM KCl, 8 mM MgCl2, 37 °C, 30 min; 5 nM Pol-β, 2 nM APE1 (pre-incision), 2.5 nM DNA. Type of assay: biochemical.

Broadly, the IC50 is the concentration needed to halve the response being measured. Consider “[5-(4-amino-6-iodo-2-oxo-5,6-dihydropyrimidin-1-yl)-3-hydroxy-oxolan-2-yl] methoxyphosphonic acid [NSC-124854]”, for which the half-inhibitory concentration (IC50) stood at 5.3 µM.

The values are drawn from paper PMC3032781, “DNA Polymerase β as a Novel Target for Chemotherapeutic Intervention of Colorectal Cancer” (PLoS ONE, 2011).
